{
  "source": "patent US20260191782A1",
  "about": "“URIDINE TRIACETATE AMORPHOUS FORMULATION AND USES THEREOF” (PHARMA CINQ, LLC, priority 2022, published 2026)",
  "key": {"[1]": {"details": "cited from earlier work"}, "[2]": {"system": "primary mitochondrial disease", "experiment": "Treatment of primary mitochondrial disease (patient example)", "type": "in vivo, human", "details": "PMD patient, dose increased to 100 mg/kg/dose twice daily", "from_the_text": "A patient is diagnosed with primary mitochondrial disease by identification of pathogenic mutations known to impair mitochondrial oxidative phosphorylation (by whole exome sequencing and comparison with a database of known pathogenic genetic variants) combined with symptoms consistent with PMD, in this case including recurrent epileptic seizures, developmental delays, proximal renal tubular acidosis requiring bicarbonate supplementation, and exercise intolerance with early onset of fatigue during exertion. […] Within about one week, seizure frequency declines by more than 50%, and daily bicarbonate requirements to compensate for excessive urinary excretion due to proximal tubular acidosis is reduced from 200 milliEquivalents per day to less than 25. With the therapeutic goal of maintaining plasma bicarbonate above 20 mEq/liter. After several additional weeks, endurance during exercise improves, as measured by timed walking distance and standard clinical measures of subjective fatigue."}},
  "data": [
    {"smiles": "CC(=O)OC[C@H]1O[C@@H](n2ccc(=O)[nH]c2=O)[C@H](OC(C)=O)[C@@H]1OC(C)=O", "note": "[Uridine triacetate, 2′,3′,5′-Tri-O-acetyluridine]", "values": [
      {"measurement": "solubility in water", "setting": "[1]", "result": "approximately 10 milligrams per milliliter"},
      {"measurement": "seizure frequency", "setting": "[2]", "result": "decreases further"}
    ]}
  ]
}
